Source: patent publication US11261179B2, “Small molecules” (University of Dundee, priority 2017, dated 2022)
“Also recorded” adds a separate entry of the source.

How the values were obtained:
[1] = target: pVHL30 (VCB complex) (Homo sapiens, UniProt P40337); experiment: ITC titration against VCB, long VHL isoform; type: binding
Procedure: Titrations were performed on an ITC200 micro-calorimeter (GE Healthcare). […] The final DMSO concentration was 0.15% v/v. VBC protein experiments were carried out in a buffer containing 20 mM Bis-tris propane, 150 mM NaCl, 1 mM TCEP, 0.15% v/v DMSO, pH 7.4. The titrations consisted of 19 injections of 2 μL compounds solution (150 μM, in the syringe) at a rate of 2 s/μL at 120 s time intervals into the VCB protein solution (20 μM, in the cell). An initial injection of compound solution (0.4 μL) was made and discarded during data analysis. All experiments were performed at 25° C., whilst stirring the syringe at 600 rpm. The data were fitted to a single binding site model to obtain the stoichiometry n, the dissociation constant Kd and the enthalpy of binding ΔH using the Microcal LLC ITC200 Origin software provided by the manufacturer.

[2] = target: T1, pVHL30 (long isoform of VHL) (Homo sapiens, UniProt P40337); experiment: Western blot of VHL levels in HeLa cells; type: cell-based
T1 construct: endogenous in cells; host or cells: HeLa
Procedure: (§1) For single time point treatment experiments, cells were transferred in 6-well plates with 5×10^5 cells per well in 2 ml media in order to achieve 80% confluence the following day. Stock concentrations of compounds were prepared by solubilizing the powder in 100% v/v DMSO to the final desired stock concentration.
(§2) On the day of treatment, all compound samples were prepared as 100-fold concentrated compound solution using DMEM just before treatment. The experiment samples (20 μL) were added to the 6 well plate containing 2 ml of media. The final DMSO concentration was 0.1% v/v. Cells were incubated at 37° C. and 5% CO2 for the desired time before harvesting.
(§3) For time dependent treatment, cells were transferred in 6-well plates with 3×10^5 cells per well in 2 ml media. Samples were prepared as detailed above or the single time point experiments. Treatment was conducted at given time points prior to harvest.
Cells were transferred in 6-well plates with 5×10^5 cells per well in 2 ml media in order to achieve 80% confluence the day after. At t=0, MLN4924 was added into the desired wells at 3 μM final concentration and 0.1% v/v of DMSO. DMSO (0.1% v/v final conc.) was added to the remaining wells in order to match identical conc. of vehicle in all wells. At t=3 h, MG 132 was added into the desired wells at 50 μM final conc. and 0.1% v/v of DMSO. DMSO (0.1% v/v final conc.) was added to the remaining wells in order to achieve the same conc. of vehicle in all the wells. […] DMSO (0.1% v/v final conc.) was added to the remaining wells in order to obtain the same conc. of vehicle in all the wells. The total final concentration of DMSO was therefore 0.3% v/v. Plates were incubated for 4 h at 37° C. and 5% CO2 before harvesting.
Cells were transferred in 6-well plates with 5×10^5 cells per well in 2 ml media in order to achieve 80% confluence the day after. […] Plates were incubated for the desired time at 37° C. and 5% CO2 before harvesting.
For this experiments, cells were transferred in 6-well plates with 5×10^5 cells per well in 2 ml media in order to achieve 80% confluence the day after. […] Plates were incubated for the desired time at 37° C. and 5% CO2 before harvesting.
(§4) Cells were lysed in lysis buffer (20 mM Tris pH 8, 150 mM NaCl, 1% Triton x100) and a protease inhibitor cocktail (Roche) per 10 ml buffer. For protein extracts, the dishes were placed on ice. The media was aspirated and the tissue layer washed twice with ice-cold phosphate buffer saline (PBS). Lysis buffer (120 μl) was added and the cells detached from the surface with a cell scraper. After removal of the insoluble fraction by centrifugation, the protein concentration of the supernatant was determined by Pierce™ Coomassie (Bradford) Protein Assay Kit. Protein extracts were fractionated by SDS-PAGE on 4-12% Tris-Acetate NuPage® Novex® (Life Technologies) polyacrylamide gels and transferred to a nitrocellulose membrane using wet transfer. The membrane was then blocked with 5% w/v Bovine serum albumin (BSA) in Tris-buffered saline (TBS) with 0.1% w/v Tween-20. For detecting proteins the following primary antibodies in the given concentrations were used: anti-β-Actin (Cell Signaling Technology, 4970S, 13E5) 1:2000, anti-VHL (Cell Signaling Technology, #68547) 1:1000, anti-Hif-1α (BD Biosciences, 610959, clone 54) 1:1000, anti-hydroxy-HIF-1α (Hyp564) (Cell Signaling Techonology; #3434) 1:1000, anti-PHD2 (Bethyl Laboratories; A300-322A) 1:1000, anti-PHD3 (Bethyl Laboratories; A300-327A) 1:1000, anti-CRBN (Proteintech; 11435-1-AP) 1:1000.
(§5) Following incubation with a horseradish peroxidase-conjugated secondary antibody (Cell Signaling Technology), the signal was developed using enhanced chemiluminescence (ECL) Western Blotting Detection Kit (Amersham) on Amersham Hyperfilm ECL film (Amersham).
Band quantification was performed using ImageJ software and reported as relative amount as ratio of the each protein band relative to the lane's loading control. […]

[3] = tested on: HIF-1α / hydroxylated HIF-1α (Hdy-HIF-1α); experiment: Western blot of HIF-1α and Hdy-HIF-1α levels in HeLa cells; type: cell-based, Human; details: HeLa, 1 μM, 10 h
Procedure: as §1, §2, §3, §4, §5
(§6) Band quantification was performed using ImageJ software and reported as relative amount as ratio of the each protein band relative to the lane's loading control. The values obtained were then normalized to 0.1% DMSO vehicle control.

[4] = target: T2, pVHL30 (Homo sapiens, UniProt P40337); experiment: Western blot of VHL levels in U2OS cells; type: cell-based
T2 construct: endogenous in cells; host or cells: U2OS
Procedure: as §1, §2, §3, §4, §5, §6

[5] = target: VCB complex (Homo sapiens, UniProt P40337); experiment: Size exclusion chromatography of VCB complex formation; type: binding; details: SEC, VCB 50 μM, compound 30 μM
Procedure: SEC experiments were carried out in a AKTA pure system (GE Healthcare) at room temperature. The oligomeric state of the VCB complex in solution was analyzed by gel filtration in a buffer containing 20 mM Bis-Tris (pH 7), 150 mM NaCl and 1 mM 1,4-dithiothreitol (DTT) using a Superdex 200 Increase 10/300 GL column (GE Healthcare) calibrated with globular proteins of known molecular weight (GE Healthcare, 28-4038-41/42). […] Sample volume for each injection was 200 μL, and the flow rate was 0.5 mL/min. Peak elution was monitored using ultraviolet absorbance at 280 nm.

T2 sequence (P40337 whole entry): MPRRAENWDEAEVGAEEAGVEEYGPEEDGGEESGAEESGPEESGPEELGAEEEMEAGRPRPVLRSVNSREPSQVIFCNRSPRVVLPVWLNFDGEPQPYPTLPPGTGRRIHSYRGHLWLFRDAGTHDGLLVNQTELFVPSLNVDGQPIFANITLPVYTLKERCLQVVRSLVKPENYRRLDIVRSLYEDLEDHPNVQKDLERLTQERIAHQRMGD
T1 sequence (P40337 whole entry, canonical isoform): as the sequence (P40337 whole entry) above
pVHL30 (VCB complex), sequence (P40337 whole entry, canonical isoform): as the sequence (P40337 whole entry) above
pVHL30 (VCB complex), sequence (Q15370 1-104 partner limits assumed): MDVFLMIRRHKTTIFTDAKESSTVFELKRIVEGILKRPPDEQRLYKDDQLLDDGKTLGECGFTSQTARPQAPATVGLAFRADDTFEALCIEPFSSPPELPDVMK
pVHL30 (VCB complex), sequence (Q15369 17-112 partner limits assumed): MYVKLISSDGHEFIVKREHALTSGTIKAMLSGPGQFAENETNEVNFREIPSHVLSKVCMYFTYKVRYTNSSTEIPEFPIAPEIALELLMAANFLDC
VCB complex, sequence (P40337 54-213 limits assumed): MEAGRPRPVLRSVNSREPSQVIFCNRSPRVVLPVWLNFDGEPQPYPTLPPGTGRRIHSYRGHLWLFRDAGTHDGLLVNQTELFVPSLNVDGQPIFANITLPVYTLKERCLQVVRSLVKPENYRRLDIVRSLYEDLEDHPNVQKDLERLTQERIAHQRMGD
VCB complex, sequence (Q15370 1-104 partner limits assumed): as the sequence (Q15370 1-104 partner limits assumed) above
VCB complex, sequence (Q15369 17-112 partner limits assumed): as the sequence (Q15369 17-112 partner limits assumed) above

Kd [1]: 0.025 ± 0.003 µM
n (stoichiometry) [1]: 0.866 ± 0.003
ΔG [1]: -43.5 ± 0.42 kJ/mol
ΔH [1]: -47.3 ± 0.42 kJ/mol
α (cooperativity/avidity) [1]: 4
−TΔS [1]: -3.8 ± 0.42 kJ/mol
effective degrading concentrations lower than inhibitory concentrations of VH032 [2]: > 3 orders of magnitude
increase in cellular activity compared to parent inhibitor VH032 [2]: > 1000 fold
DC99, complete depletion of pVHL30 ([2]; 4 h): 10 nM
DC50 ([2]; 24 h, read-out: half-degrading concentration (DC50) of pVHL30): ~0.1 µM
cellular activity with IOX4 pre-treatment ([2]; IOX4 50 μM 30 min before CM11 1 μM, 4 h): did not impact the cellular activity
degradation of pVHL30 with MG132 pre-treatment ([2]; MG132 50 μM 30 min before CM11 1 μM, 4 h): completely abrogated
degradation of pVHL30 with MLN4924 pre-treatment ([2]; MLN4924 3 μM before CM11 1 μM, 4 h): prevented
pVHL degradation with VH032 pre-treatment (competition) ([2]; VH032 150 μM 30 min before CM11 1 μM, 4 h): blocked pVHL degradation
decrease of pVHL30 level ([2]; time course, after 8 h): essentially to completion
profile of cellular activity ([4]; 10 h, 1 nM-100 μM): consistent profile of cellular activity
cellular efficacy at longer time points ([4]; time course): retained their efficacy
time of treatment to complete degradation of pVHL30 ([4]; time course): 1 h
molecular weight of species of shifted peak [5]: ~90 kDa
shift of VCB peak / ternary complex formation [5]: migrates more quickly
SMILES: Cc1ncsc1-c1ccc(CNC(=O)[C@@H]2C[C@@H](O)CN2C(=O)[C@@H](NC(=O)COCCOCCOCCOCCOCCOCC(=O)N[C@H](C(=O)N2C[C@H](O)C[C@H]2C(=O)NCc2ccc(-c3scnc3C)cc2)C(C)(C)C)C(C)(C)C)cc1 [CM11, N^1,N^20-bis((S)-1-((2S,4R)-4-hydroxy-2-((4-(4-methylthiazol-5-yl)benzyl)carbamoyl)pyrrolidin-1-yl)-3,3-dimethyl-1-oxobutan-2-yl)-3,6,9,12,15,18-hexaoxaicosanediamide]
depletion/degradation of VHL (pVHL30) ([2]; 1 μM, 10 h): total knockdown; also recorded: complete depletion
HIF-1α level [3]: slight increase
protein levels of Hdy-HIF-1α [3]: detectable albeit low increase
